We go through 3 compounds from BindingDB's records for doi:10.1021/acs.jmedchem.6b01711 (University of Strathclyde, 2017).

SMILES strings stand for the structures.

A short description of experiment [1]: Antagonist activity at integrin alpha2b beta3 receptor in citrated human platelet-rich plasma assessed as inhibition of ADP-induced platelets aggregation preincubated for 15 mins followed by ADP addition measured for 8 mins by aggregometric analysis.
The nature of experiment [2]: Antagonist activity at integrin alpha2b beta3 receptor in citrated human platelet-rich plasma assessed as inhibition of ADP-induced platelet aggregation.
Experiment [3] can be described thus: Inhibition of alpha5 beta1 integrin (unknown origin) by cell proliferation assay.
Experiment [4] can be described thus: Inhibition of alpha5 beta1 integrin (unknown origin) by cell migration assay.

By IC50 is commonly meant the point on the concentration scale where inhibition reaches its midpoint. With `CCc1nn2c(=O)cc(N3CCNCC3)nc2s1`, the IC50 in experiment [1] was found to be 9.7 µM.

On to `N=C(N)c1ccc2cc(OC(=O)c3ccc(N=C(N)N)cc3)ccc2c1` [4-Guanidino-benzoic acid 6-carbamimidoyl-naphthalen-2-yl ester(FUT-175)], for which the IC50 in experiment [2] was found to be 12 µM.

As for `O=c1c(C2NCCc3c2[nH]c2ccccc32)c(O)[nH]c(=S)n1Cc1ccc(F)cc1` (centres undefined), the 50% inhibitory concentration (IC50) came out at 20.5 µM in experiment [3] and 15.5 µM in experiment [4].
